# Laboratory results taken from US9902725B2, “Heterocyclic derivatives as RORgamma modulators” (GENFIT, priority 2014, dated 2018).
# pIC50: −log10 of the molar value.
# Molecular target: T1, RORγt ligand-binding domain (RORγt-LBD) (Homo sapiens, UniProt P51449)
# T1 construct: 20 nM recombinantly expressed RORγ-LBD fused to GST
# T1 sequence (P51449 269-508 limits assumed): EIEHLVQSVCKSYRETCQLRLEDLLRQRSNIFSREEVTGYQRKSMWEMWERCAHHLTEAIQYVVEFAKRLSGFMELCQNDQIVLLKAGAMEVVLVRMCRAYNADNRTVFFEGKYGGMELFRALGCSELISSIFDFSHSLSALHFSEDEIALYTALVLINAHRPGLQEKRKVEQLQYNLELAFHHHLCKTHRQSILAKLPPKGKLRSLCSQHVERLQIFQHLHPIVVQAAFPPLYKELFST
# Assay: Time-resolved FRET (TR-FRET) RORγt coactivator assay
# Assay type: biochemical
# Details: GST-RORγ-LBD, biotinylated RIP140 peptide, coactivator displacement
# Source text: Time-resolved FRET (TR-FRET) RORγt coactivator assay was used to identify RORγ modulator compounds with ligand-dependent coactivator displacement. The assay uses a d2-labeled anti-GST antibody, synthetic N-terminally biotinylated peptide which is derived from nuclear receptor coactivator protein RIP140, and a RORγt ligand-binding domain (RORγt-LBD) that is tagged with glutathione-S-transferase (GST). The influence of compounds on the RORγ-peptide interaction relies on the binding dependent energy transfer from a donor to an acceptor fluorophore attached to the binding partner of interest. […] For reduction of background from compound fluorescence, TR-FRET method makes use of generic fluorophore labels and time resolved detection.
# The assays were done in a final volume of 20 μl in a 384 well plate in a CHAPS buffer (2 mM CHAPS; 1 mM DTT, 2 mM EDTA; 0.1% BSA), containing 20 nM recombinantly expressed RORγ-LBD fused to GST, 30 nM N-terminally biotinylated peptide, 1 nM streptavidin-terbium conjugate and 20 nM d2 labeled-anti-GST. Test compounds were diluted using 10 mM stock solution. The range of the final compound concentrations used in this test was from 0.3 nM to 30 μM (logarithmic scale). DMSO content of the samples was kept at 1%. The assay was equilibrated for 2 hours in the dark at room temperature in 384 well plates (Falcon). The signal was detected by an Ultra384 reader (TECAN). The results were visualized by plotting the ratio between the emitted light at 665 nm and 620 nm. A basal level of RORγ-peptide formation is observed in the absence of added compound. Compounds that promote coactivator displacement induce a concentration-dependent decrease in time-resolved fluorescent signal. Data were collected and analyzed using GraphPad Prism software (GraphPad Software V5.02, San Diego Calif. USA). IC50 in μM and Emax in % were reported for each compound.
row,Compound,pIC50
1,"Cc1ccc(N2CCCCC2)c(C(NC(=O)Cc2ccc3[nH]cc(CCC(=O)OC(C)(C)C)c3c2)c2ccccc2)c1 (stereo not drawn) [Cpd. 113, tert-butyl 3-{5-[({[5-methyl-2-(piperidin-1-yl)phenyl](phenyl)methyl}carbamoyl)methyl]-1H-indol-3-yl}propanoate]",5.00 to 6.00
2,"CC(C)(C)OC(=O)CCc1c[nH]c2ccc(CC(=O)NC(c3ccccc3)c3cc(Br)ccc3N3CCCC3)cc12 (stereo not drawn) [Cpd. 116, tert-butyl 3-{5-[({[5-bromo-2-(pyrrolidin-1-yl)phenyl](phenyl)methyl}carbamoyl)methyl]-1H-indol-3-yl}propanoate]",5.00 to 6.00
3,"CC(C)(C)OC(=O)CCc1c[nH]c2ccc(CC(=O)NC(c3ccccc3)c3ccccc3N3CCCC(O)C3)cc12 (stereo not drawn) [Cpd. 123, tert-butyl 3-{5-[({[2-(3-hydroxypiperidin-1-yl)phenyl](phenyl)methyl}carbamoyl)methyl]-1H-indol-3-yl}propanoate]",5.00 to 6.00
4,"CC(C)(C)OC(=O)CCc1c[nH]c2ccc(CC(=O)NC(c3ccccc3)c3ccccc3N3CC=CCC3)cc12 (stereo not drawn) [Cpd. 127, tert-butyl 3-{5-[({phenyl[2-(1,2,3,6-tetrahydropyridin-1-yl)phenyl]methyl}carbamoyl)methyl]-1H-indol-3-yl}propanoate]",5.00 to 6.00
5,"CC(C)(C)OC(=O)CCc1c[nH]c2ccc(CC(=O)NC3(c4ccccc4N4CCCC4)CCCC3)cc12 [Cpd. 129, tert-butyl 3-{5-[({1-[2-(pyrrolidin-1-yl)phenyl]cyclopentyl}carbamoyl)methyl]-1H-indol-3-yl}propanoate]",5.00 to 6.00
6,"Cc1ccc(C(CC(C)C)NC(=O)Cc2ccc3[nH]cc(CCC(=O)OC(C)(C)C)c3c2)c(N(C)C)c1 (stereo not drawn) [Cpd. 133, tert-butyl 3-{5-[({1-[2-(dimethylamino)-4-methylphenyl]-3-methylbutyl}carbamoyl)methyl]-1H-indol-3-yl}propanoate]",5.00 to 6.00
7,"COc1ccc(N2CCCCC2)c(C(NC(=O)Cc2ccc3[nH]cc(CCC(=O)OC(C)(C)C)c3c2)c2ccccc2)c1 (stereo not drawn) [Cpd. 135, tert-butyl 3-{5-[({[5-methoxy-2-(piperidin-1-yl)phenyl](phenyl)methyl}carbamoyl)methyl]-1H-indol-3-yl}propanoate]",5.00 to 6.00
8,"Cc1ccc(C(NC(=O)Cc2ccc3[nH]cc(CCC(=O)OC(C)(C)C)c3c2)c2ccc(C)s2)c(N2CCCCC2)c1 (stereo not drawn) [Cpd. 137, tert-butyl 3-{5-[({[4-methyl-2-(piperidin-1-yl)phenyl](5-methylthiophen-2-yl)methyl}carbamoyl)methyl]-1H-indol-3-yl}propanoate]",5.00 to 6.00
9,"CC(C)(C)OC(=O)CCc1c[nH]c2ccc(CC(=O)NC3(c4ccccc4N4CCCCC4)CCCCC3)cc12 [Cpd. 143, tert-butyl 3-{5-[({1-[2-(piperidin-1-yl)phenyl]cyclohexyl}carbamoyl)methyl]-1H-indol-3-yl}propanoate]",5.00 to 6.00
10,"CCOc1ccc(C(NC(=O)Cc2ccc3[nH]cc(CCC(=O)OC(C)(C)C)c3c2)c2ccccc2)c(N2CCCCC2)c1 (stereo not drawn) [Cpd. 149, tert-butyl 3-{5-[({[4-ethoxy-2-(piperidin-1-yl)phenyl](phenyl)methyl}carbamoyl)methyl]-1H-indol-3-yl}propanoate]",5.00 to 6.00
11,"Cc1ccc(C(NC(=O)Cc2ccc3[nH]cc(CCC(=O)OC(C)(C)C)c3c2)c2ccccc2)c(N)c1 (stereo not drawn) [Cpd. 183, tert-butyl 3-[5-({[(2-amino-4-methylphenyl)(phenyl)methyl]carbamoyl}methyl)-1H-indol-3-yl]propanoate]",5.00 to 6.00
12,"CCOC(=O)CCCC(=O)c1c[nH]c2ccc(CC(=O)NC(c3ccccc3)c3ccccc3N3CCCCC3)cc12 (stereo not drawn) [Cpd. 214, ethyl 5-oxo-5-{5-[({phenyl[2-(piperidin-1-yl)phenyl]methyl}carbamoyl)methyl]-1H-indol-3-yl}pentanoate]",5.00 to 6.00
13,"CCCCC(NC(=O)Cc1ccc2[nH]cc(CCC(=O)OC(C)(C)C)c2c1)c1ccccc1N(CC)CC (stereo not drawn) [Cpd. 218, tert-butyl 3-{5-[({1-[2-(diethylamino)phenyl]pentyl}carbamoyl)methyl]-1H-indol-3-yl}propanoate]",5.00 to 6.00
14,"COC(=O)Cc1c[nH]c2ccc(CC(=O)NC(c3ccc(C)s3)c3ccc(C)cc3C)cc12 (stereo not drawn) [Cpd. 222, methyl 2-[5-({[(2,4-dimethylphenyl)(5-methylthiophen-2-yl)methyl]carbamoyl}methyl)-1H-indol-3-yl]acetate]",5.00 to 6.00
15,"Cc1ccc(C(NC(=O)Cc2ccc3[nH]cc(CCC(=O)OC(C)(C)C)c3c2)c2ncccn2)c(Br)c1 (stereo not drawn) [Cpd. 226, tert-butyl 3-[5-({[(2-bromo-4-methylphenyl)(pyrimidin-2-yl)methyl]carbamoyl}methyl)-1H-indol-3-yl]propanoate]",> 6.00
16,"Cc1ccc(C(NC(=O)Cc2ccc3[nH]cc(CCC(=O)OC(C)(C)C)c3c2)c2ccccc2)c2[nH]ccc12 (stereo not drawn) [Cpd. 228, tert-butyl 3-[5-({[(4-methyl-1H-indol-7-yl)(phenyl)methyl]carbamoyl}methyl)-1H-indol-3-yl]propanoate]",5.00 to 6.00
17,"CCCCC(NC(=O)Cc1ccc2[nH]cc(CCC(=O)OC(C)(C)C)c2c1)c1ccc(C)cc1N1CCCCC1 (stereo not drawn) [Cpd. 230, tert-butyl 3-{5-[({1-[4-methyl-2-(piperidin-1-yl)phenyl]pentyl}carbamoyl)methyl]-1H-indol-3-yl}propanoate]",5.00 to 6.00

# The remaining lines, values ahead:
row,pIC50,Compound
1,> 6.00,"CN(C)Cc1ccccc1C(NC(=O)Cc1ccc2[nH]cc(CCC(=O)O)c2c1)c1ccccc1 (stereo not drawn) [Cpd. 122, 3-(5-{[({2-[(dimethylamino)methyl]phenyl}(phenyl)methyl)carbamoyl]methyl}-1H-indol-3-yl)propanoic acid]"
2,> 6.00,"Cc1ccc(C(NC(=O)Cc2ccc3[nH]cc(CCC(=O)OC(C)(C)C)c3c2)c2ncccn2)c(N2CCCCC2)c1 (stereo not drawn) [Cpd. 131, tert-butyl 3-{5-[({[4-methyl-2-(piperidin-1-yl)phenyl](pyrimidin-2-yl)methyl}carbamoyl)methyl]-1H-indol-3-yl}propanoate]"
3,> 6.00,"Cc1ccc(C(NC(=O)Cc2ccc3[nH]cc(CCC(=O)OC(C)(C)C)c3c2)c2nccs2)c(N2CCCCC2)c1 (stereo not drawn) [Cpd. 139, tert-butyl 3-{5-[({[4-methyl-2-(piperidin-1-yl)phenyl](1,3-thiazol-2-yl)methyl}carbamoyl)methyl]-1H-indol-3-yl}propanoate]"
4,> 6.00,"Cc1cccc(C(NC(=O)Cc2ccc3[nH]cc(CCC(=O)OC(C)(C)C)c3c2)c2ccccc2N2CCCCC2)c1 (stereo not drawn) [Cpd. 157, tert-butyl 3-[5-({[(3-methylphenyl)[2-(piperidin-1-yl)phenyl]methyl]carbamoyl}methyl)-1H-indol-3-yl]propanoate]"
5,> 6.00,"Cc1ccc(C(C(=O)NCc2ccc3[nH]cc(CCC(=O)OC(C)(C)C)c3c2)c2ccccc2)c(N2CCCCC2)c1 (stereo not drawn) [Cpd. 208, tert-butyl 3-[5-({2-[4-methyl-2-(piperidin-1-yl)phenyl]-2-phenylacetamido}methyl)-1H-indol-3-yl]propanoate]"
6,> 6.00,"COC(=O)Cc1c[nH]c2ccc(CC(=O)NC(c3ccccc3)c3ccc(C)cc3Br)cc12 (stereo not drawn) [Cpd. 220, methyl 2-[5-({[(2-bromo-4-methylphenyl)(phenyl)methyl]carbamoyl}methyl)-1H-indol-3-yl]acetate]"
7,> 6.00,"COC(=O)Cc1c[nH]c2ccc(CC(=O)NC(c3ccccc3)c3ccccc3N3CCOCC3)cc12 (stereo not drawn) [Cpd. 224, methyl 2-{5-[({[2-(morpholin-4-yl)phenyl](phenyl)methyl}carbamoyl)methyl]-1H-indol-3-yl}acetate]"
